We go through two molecules from publication PMC10386454 (Pharmaceutics, 2023).

Experiment [1] relates to HEK293 empty vector transfected cells (mock). As to the kind of experiment: Forskolin-stimulated cAMP production in mock-transfected HEK293 cells. It is filed as cell-based, human. The settings on record: extracts […] (Ex18 0.005 mg/mL), melatonin 1 µM. (Changes in cAMP serve as a functional read-out for many G protein-coupled receptors.)
The test system is the same in experiment [2]. As to the kind of experiment: ERK1/2 activation assay in mock HEK293 cells. Format: cell-based, human. The settings on record: MLT 1 µM.
The test system is the same in experiment [3]. As to the kind of experiment: β-arrestin2 recruitment assay (PathHunter), control cells with β-gal donor not fused to melatonin receptors. It is filed as cell-based, human. The settings on record: extracts […], Ex18 0.005 mg/mL, MLT 1 µM. On the technique in general: Arrestin recruitment assays detect the binding of arrestin to an activated receptor.
Experiment [4] addresses T1, human MT1 (Homo sapiens, UniProt P48039). As to the kind of experiment: Inhibition of forskolin-stimulated cAMP production, HEK293 cells expressing MT1. Conditions: single concentration: extracts […] (Ex18 0.005 mg/mL), melatonin 1 µM; normalized to mock cell responses. Further details: expressed in transfected cells. It is filed as cell-based.
Target sequence in this assay (P48039 whole entry): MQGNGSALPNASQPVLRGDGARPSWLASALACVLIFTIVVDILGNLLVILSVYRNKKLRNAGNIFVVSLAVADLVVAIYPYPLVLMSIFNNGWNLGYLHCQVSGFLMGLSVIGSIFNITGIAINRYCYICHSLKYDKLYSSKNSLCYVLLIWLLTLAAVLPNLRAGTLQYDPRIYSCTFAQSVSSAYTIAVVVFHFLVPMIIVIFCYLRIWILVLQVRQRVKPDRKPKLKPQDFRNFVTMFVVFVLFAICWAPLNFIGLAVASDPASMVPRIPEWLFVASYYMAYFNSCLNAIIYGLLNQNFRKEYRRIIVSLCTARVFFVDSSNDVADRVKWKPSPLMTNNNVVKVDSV
The target in experiment [5] is T1, human MT1. As to the kind of experiment: β-arrestin2 recruitment assay (PathHunter), MT1. It is filed as cell-based. Further details: host or cells: HEK 293 PathHunter parental cells, transient transfection of the receptor. The settings on record: single saturating concentration.
Target sequence in this assay (P48039 whole entry): as above
Target sequence in this assay (P32121 whole entry partner): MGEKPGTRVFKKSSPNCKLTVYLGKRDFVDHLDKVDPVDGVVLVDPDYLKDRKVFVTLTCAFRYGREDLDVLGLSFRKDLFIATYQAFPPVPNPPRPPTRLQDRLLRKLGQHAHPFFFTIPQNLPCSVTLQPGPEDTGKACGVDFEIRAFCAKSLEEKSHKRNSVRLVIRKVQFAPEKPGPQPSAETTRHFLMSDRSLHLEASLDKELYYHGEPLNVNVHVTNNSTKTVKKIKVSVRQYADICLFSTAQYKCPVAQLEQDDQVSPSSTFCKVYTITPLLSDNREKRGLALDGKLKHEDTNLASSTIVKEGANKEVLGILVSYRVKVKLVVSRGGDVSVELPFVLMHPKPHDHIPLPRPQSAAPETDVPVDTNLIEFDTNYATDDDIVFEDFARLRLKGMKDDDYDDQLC
For the next experiment, the target named is T2, human MT2 receptor (Homo sapiens, UniProt P49286).
T2 construct: expressed in transfected cells
T2 sequence (P49286 1-362): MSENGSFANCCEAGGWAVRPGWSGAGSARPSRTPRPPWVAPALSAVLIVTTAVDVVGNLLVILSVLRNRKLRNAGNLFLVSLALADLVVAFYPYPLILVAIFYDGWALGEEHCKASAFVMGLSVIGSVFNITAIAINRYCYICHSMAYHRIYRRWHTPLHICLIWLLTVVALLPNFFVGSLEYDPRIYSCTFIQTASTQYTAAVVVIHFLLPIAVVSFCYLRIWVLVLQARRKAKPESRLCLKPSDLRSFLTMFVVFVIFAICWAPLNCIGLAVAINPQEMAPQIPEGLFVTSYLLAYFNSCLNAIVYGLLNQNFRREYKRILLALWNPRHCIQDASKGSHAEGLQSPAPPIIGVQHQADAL
As to the kind of experiment: 2-[125I]iodomelatonin competitive binding assay, MT2.

Experiment [6] deals with T1, human MT1. As to the kind of experiment: 2-[125I]iodomelatonin competitive binding assay, MT1. Further details: expressed in transfected cells.
Target sequence in this assay (P48039 whole entry): as the sequence (P48039 whole entry) above

Regarding `COc1ccc2[nH]cc(CCNC(C)=O)c2c1` [Melatonin, N-acety-5-methoxyltryptamine], in experiment [1], the “effect on forskolin (FSK)-stimulated cAMP levels in mock cells” value is recorded as “did not show any effect”. For the same molecule, in experiment [2], the “effect on ERK1/2 pathway in mock cells, in words” value is recorded as “without effect”. Moreover, in experiment [3], the “β-arrestin2 recruitment in control cells (β-gal donor alone)” value is “Neither melatonin nor any extract induced β-arrestin2 recruitment”. Further, at human MT1 [4], the “effect on FSK-stimulated cAMP production, cells expressing MT1” value is listed as “decreased FSK-stimulated cAMP production”. For the same molecule, the “β-arrestin2 recruitment, MT1-β-gal donor fusion protein” value at human MT1 [5] was “induced β-arrestin2 recruitment”.

Regarding maltodextrin, on human MT2 receptor, the “2-[125I]-MLT binding to MT2, result in words” value was “no impact”. In addition, the “2-[125I]-MLT binding to MT1, result in words” value at human MT1 [6] was “no impact”.
